Assay results published in patent US4696918A, “Solubilized platinum compound” (Johnson Matthey Public Limited Company, priority 1984, dated 1987).
Like-named read-outs stand apart in the source and are kept apart here.

Legend:
[1] = association with α-cyclodextrin by 1H n.m.r. spectroscopy; assay type: physicochemical; settings: D2O, ca. 22° C.; corrected chemical shifts H-3 and H-a vs fraction bound
Procedure: (§1) We have studied the association constant for the preferred compound according to the invention by a micro-calorimetric method which involves measuring the heat evolved when solutions of the platinum(II) compound and α-cyclodextrin are mixed and also by using a ^1 H n.m.r. spectroscopic approach.
For the spectroscopic approach, two types of spectroscopic investigations were performed in D2 O at ca. 22° C. using a Bruker AM250FT Spectrometer. In the first series of experiments, equimolar solutions of Pt(NH3)2.CBDCA and α-cyclodextrin were studied at various dilutions and, in the second series of experiments, the concentration of the platinum complex was kept constant and the concentration of the α-cyclodextrin was varied. When processing the chemical shift data, corrections were made to allow for the tendency of α-cyclodextrin to self-associate. […] The latter was calculated from the equilibrium constant, corrected to the aquamolal scale, obtained from the microcalorimetric measurements.

in vivo haematotoxicity = test: in vivo haematotoxicity; set-up: species or system male Wistar albino rats; settings: rat; for haematotoxicity and nephrotoxicity testing, comparison of the two compounds: blood samples days 1, 4, 8, 12 and 16 after injection, haematocrit, white blood cell counts, plasma urea nitrogen
From the text: (§2) The kidneys were also subjected to histological examination.

[2] = association with α-cyclodextrin by microcalorimetry; assay type: physicochemical
From the text: as §1
For the microcalorimetry experiments, a solution of the platinum complex (0.02366 mol kg^-1) in water was mixed with a range of aqueous solutions of α-cyclodextrin (ca. 0.01-0.1 mol kg^-1) in a batch calorimeter operating at 25° C. A series of preliminary experiments was performed so that corrections for the contributions arising from the enthalpy of dilution of the two solutes could be made. The expression linking the enthalpy change per mol (ΔH) of Pt(NH3)2.CBDCAto the final molalities of both this guest (G) and the α-cyclodextrin host (H) and to the equilibrium constant (Ka) and the standard enthalpy change (ΔH⊖) for the equilibrium,
H+G.revreaction.H·G,
Ka =ΔH·ΔH⊖ /(ΔH⊖
[H]-ΔH[G])(ΔH⊖ -ΔH) (1)
In the Figure, the filled circles denote experimental points and the line denotes the analysis obtained using Equation (1). It is seen that good correlation is obtained between theory and practice.

kidneys = test: in vivo nephrotoxicity; set-up: species or system male Wistar albino rats; settings: rat; for histological examination of the kidneys / plasma urea nitrogen levels / urine protein levels (proteinuria): in vivo; for gross nephrotoxicity: from plasma urea nitrogen
From the text: as §2

[3] = cited from earlier work
[4] = distribution of platinum in blood, urine and faeces following intravenous administration; assay type: in vivo, male Wistar albino rats; settings: rat, 24 hours

Row | Molecule | agreement between n.m.r. and thermodynamic results [1] | haematotoxicity and nephrotoxicity testing, comparison of the two compounds (in vivo haematotoxicity) | standard entropy change ΔS⊖ ([2]; association with α-cyclodextrin in water, recorded in FIG. 2) | tendency to associate with α-cyclodextrin ([2]; in water) | standard enthalpy change ΔH⊖ ([2]; in water, 25° C., association with α-cyclodextrin) | association (equilibrium) constant Ka ([2]; in water, 25° C., α-cyclodextrin host) | histological examination of the kidneys (kidneys) | plasma urea nitrogen levels (kidneys) | urine protein levels (proteinuria) (kidneys) | gross nephrotoxicity (kidneys) | aqueous solubility (attainable concentration) (water) | general toxicity ([3]; compared with certain other platinum-containing compounds, particularly cisplatin) | kidney toxicity ([3]; relative to cisplatin) | faecal levels, Pt excretion [4] | urine levels, Pt excretion [4] | anaemic and myelosuppressive response (in vivo haematotoxicity; inclusion compound compared with Pt(NH3)2.CBDCA alone) | aqueous solubility (attainable concentration) (aqueous α-cyclodextrin solution)
1 | N.N.O=C([O-])C1(C(=O)[O-])CCC1.[Pt+4] [Pt(NH3)2.CBDCA, 1,1-cyclobutanedicarboxylatediammineplatinum(II)] | excellent agreement between the n.m.r. and thermodynamic results | Results as between the two test compounds were similar | -27 J K^-1 mol^-1 | very marked tendency to associate with α-cyclodextrin in water | -5.02 ± 0.478 kcal/mol | 199 ± 10 kg/mol | Some nuclear enlargement of the kidneys | remained constant throughout the study period | no obvious proteinuria was observed | no gross nephtrotoxicity | 50 mM | relatively non-toxic | reduced dramatically | 4-5% | 65-67% | – | –
2 | inclusion compound of 1,1-cyclobutanedicarboxylatediammineplatinum(II) and α-cyclodextrin | – | Results as between the two test compounds were similar | – | – | – | – | Some nuclear enlargement of the kidneys | remained constant throughout the study period | no obvious proteinuria was observed | no gross nephtrotoxicity | – | – | – | 4-5% | 65-67% | slightly less anaemic and myelosuppressive response | approximately 200 mM
